Each block holds one molecule with its values, some of them ahead of it. Residues, ends and D or L forms follow the SMILES beside them.
Experiments:
[1] = tested on: HFrD-fed STZ induced IR mice; assay: i.p. glucose tolerance test (GTT), HFrD-fed mice; format: in vivo; details: 6 h fasted, mean ± s.e.m., n = 6
Method: (§1) All animal experiments were performed according to protocols approved by Institutional Animal Ethics Committee (IAEC approval no. IAEC/2012/31-A), CSIR-Central Drug Research Institute (CSIR-CDRI, India). Male C57BL/6 mice (8–10 weeks, 15–20 g) and male db/db mice (10–12 weeks, 45–50 g) were obtained from Laboratory of Animal Division, CSIR-CDRI. […] After successful of model development diabetic mice divided in two groups, vehicle control group receive saline and treated group receive PSTi8. After acute (5 mg/kg) and chronic (2 mg/kg) treatment of PSTi8 for 10 days, mice were fasted for 6 hr before experiments and then sacrificed to collect plasma and tissues, which were snap frozen in liquid nitrogen.
(§2) i.p GTT, i.p ITT and i.p PTT were carried out in 6 hr fasted mice. The blood glucose level was measured from tail tip using Contour TS blood glucose meter. The AUC is calculated using GraphPad Prism 5.0 software[4],[13].

[2] = tested on: HFrD-fed STZ induced IR mice; assay: i.p. insulin tolerance test (ITT), HFrD-fed mice; format: in vivo; details: 6 h fasted, mean ± s.e.m., n = 6
Method: as §1, §2

C57Bl/6 mice = assay: Glucose reduction experiment, normoglycemic mice; format: in vivo; details: control C57Bl/6 mice (normoglycemic), acute i.p. 5 mg/kg
Method: as §1

GRP78 receptor [3] = molecular target: T1, GRP78 receptor (Homo sapiens, UniProt P11021); assay: Competitive binding with sulphorhodamine labelled PST and PSTi8 in HepG2 cells; parameters: endogenous in cells; host or cells: HepG2
T1 sequence (P11021 19-654): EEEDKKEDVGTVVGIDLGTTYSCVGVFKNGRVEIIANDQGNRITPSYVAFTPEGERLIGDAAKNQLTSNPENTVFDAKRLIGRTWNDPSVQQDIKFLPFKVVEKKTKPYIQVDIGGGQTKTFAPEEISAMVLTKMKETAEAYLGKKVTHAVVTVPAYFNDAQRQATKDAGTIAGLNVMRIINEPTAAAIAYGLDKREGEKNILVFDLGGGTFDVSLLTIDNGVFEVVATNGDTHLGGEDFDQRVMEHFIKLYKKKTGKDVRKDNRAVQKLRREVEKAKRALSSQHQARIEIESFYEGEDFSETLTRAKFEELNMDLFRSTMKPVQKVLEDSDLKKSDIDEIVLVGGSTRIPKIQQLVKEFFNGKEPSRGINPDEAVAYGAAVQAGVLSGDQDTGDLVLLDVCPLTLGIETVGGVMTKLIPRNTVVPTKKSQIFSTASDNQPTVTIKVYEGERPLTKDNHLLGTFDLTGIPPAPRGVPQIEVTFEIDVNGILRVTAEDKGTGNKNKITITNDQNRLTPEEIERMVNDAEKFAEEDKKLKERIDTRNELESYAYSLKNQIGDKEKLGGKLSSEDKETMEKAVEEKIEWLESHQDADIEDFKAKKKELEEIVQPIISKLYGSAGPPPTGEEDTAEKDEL
Method: Sulphorhodamine B labelled PST and PSTi8 were synthesized and purified from Genpro Biotech, India. In HepG2 cells, the competitive binding assay of PST and PSTi8 were performed and the labelled PST and/or PSTi8 concentrations were measured at 568 nm and 584 nm, respectively.

GRP78 receptor [4] = molecular target: T1, GRP78 receptor; assay: GRP78 ATPase enzymatic activity (Malachite green-phosphate assay); format: biochemical; parameters: purchased Abcam Inc., Cambridge, MA ab78432; details: PSTi8 5 µM with PST 1 µM, GRP78 0.25 µM, 100 µM ATP, 37 °C, 30 min
Method: To determine that PSTi8 inhibit PST inhibitory action on GRP78 ATPase activity, we perform Concentration-dependent spectrophotometric assays using recombinant human GRP78 protein (catalog # ab78432, Abcam Inc., Cambridge, MA). PSTi8 was co-incubated with PST (1 µM) at different doses (1, 2.5 and 5 µM) in 50 µl of assay buffer (20 mM Tris, pH 7.5, 50 mM KCl, 1.5 mM MgCl2) containing GRP78 protein (0.25 µM). The reaction was started by adding 100 µM ATP and incubated at 37 °C for 30 min. On ATP hydrolysis free phosphate (Pi) was measured by a Malachite green-phosphate assay (catalog #10009325, Cayman)[11].

[5] = In-vivo pharmacokinetic study in db/db mice; details: i.p. 5 mg/kg, SPE, LC-MS/MS
Method: PSTi8 (5 mg/kg) was administered (i.p) in db/db mice for PK study. After dosing, blood samples were collected at different time points. Plasma samples (100 µL) were processed using the solid phase extraction (SPE). The 100 µL of eluted SPE samples were injected into the liquid chromatography tandem mass spectrometry (LC-MS/MS) (API 4000QTRAP, ABSciex, Canada) for analysis. The PK profile and parameters were evaluated by non-compartmental model approach using Pheonix 6.3 WinNonlin(Pharsight Corporation, USA).

Compound: CN(C)C(=N)N=C(N)N [metformin]
AUC, i.p GTT ([1]; acute metformin p.o. 300 mg/kg, 30 min before glucose 1 g/kg): 44068.5 ± 3070.1 mg·min/dL
AUC, i.p GTT ([1]; chronic metformin p.o. 300 mg/kg for 7 days, glucose 1 g/kg): 36913.13 ± 891.89 mg·min/dL
AUC, ipITT ([2]; acute metformin p.o. 300 mg/kg, 30 min before insulin 0.6 IU/kg): 19828.5 ± 1004.11 mg·min/dL
AUC, ipITT ([2]; chronic metformin p.o. 300 mg/kg for 7 days, insulin 0.6 IU/kg): 16417.5 ± 1222.35 mg·min/dL

inhibition at 0.3 µM (GRP78 receptor [3]; PSTi8 300 nM against sulphorhodamine labelled PST 25 nM): > 50%
enhancement of ATPase activity of GRP78 inhibited by PST (GRP78 receptor [4]): ~50%
time up to which plasma concentration was observed [5]: ≤ 6 h
Compound: CSCC[C@H](NC(=O)[C@H](CCC(=O)O)NC(=O)[C@H](CCC(=O)O)NC(=O)[C@H](CCC(=O)O)NC(=O)[C@H](CCC(=O)O)NC(=O)[C@H](CCC(=O)O)NC(=O)[C@H](CCCCN)NC(=O)[C@H](CCC(N)=O)NC(=O)[C@H](CCC(N)=O)NC(=O)[C@H](CO)NC(=O)[C@H](Cc1c[nH]cn1)NC(=O)[C@H](CCC(=O)O)NC(=O)[C@H](CCC(N)=O)NC(=O)[C@H](CCC(=O)O)NC(=O)CNC(=O)[C@H](CCCCN)NC(=O)CNC(=O)[C@H](CCC(=O)O)NC(=O)[C@@H]1CCCN1)C(=O)N[C@@H](C)C(=O)N[C@H](C(N)=O)C(C)C [PSTi8] (H-PEGKGEQEHSQQKEEEEEMAV-NH2)
effect on blood glucose level (C57Bl/6 mice): did not show any decrease in glucose level

inhibition at 0.1 µM (GRP78 receptor [3]; PST 100 nM against sulphorhodamine labelled PSTi8 150 nM): > 50%
Compound: CSCC[C@H](NC(=O)[C@H](CCC(=O)O)NC(=O)[C@H](CCC(=O)O)NC(=O)[C@H](CCC(=O)O)NC(=O)[C@H](CCC(=O)O)NC(=O)[C@H](CCC(=O)O)NC(=O)[C@H](CCCCN)NC(=O)[C@H](CCC(N)=O)NC(=O)[C@H](CCC(N)=O)NC(=O)[C@H](CO)NC(=O)[C@H](Cc1c[nH]cn1)NC(=O)[C@H](CCC(=O)O)NC(=O)[C@H](CCC(N)=O)NC(=O)[C@H](CCC(=O)O)NC(=O)CNC(=O)[C@H](CCCCN)NC(=O)CNC(=O)[C@H](CCC(=O)O)NC(=O)[C@@H]1CCCN1)C(=O)N[C@@H](C)C(=O)N[C@H](C(=O)N[C@H](C(=O)N1CCC[C@H]1C(=O)N[C@@H](CCC(N)=O)C(=O)NCC(=O)N[C@@H](CC(C)C)C(=O)N[C@@H](Cc1ccccc1)C(=O)N[C@@H](CCCNC(=N)N)C(=O)NCC(N)=O)C(C)C)C(C)C [PST, Pancreastatin] (H-PEGKGEQEHSQQKEEEEEMAVVPQGLFRG-NH2)
